From patent publication US8324406B2, “Antitumoral dihydropyran-2-one compounds” (priority 2006, dated 2012)

Tests used:
Experiment in all cases: cells
Assay type in all cases: cell-based
MDA-MB-231 = conditions: Homo sapiens, MDA-MB-231, 48 hours exposure, SRB; for CC50: 50% net cell killing (cytotoxic effect), read-out: LC50 (the source's name); for GI50: concentration that produces 50% growth inhibition, read-out: GI50; for IC (TGI): total growth inhibition (cytostatic effect), read-out: TGI
Description: (§1) The aim of this assay is to evaluate the in vitro cytostatic (ability to delay or arrest tumor cell growth) or cytotoxic (ability to kill tumor cells) activity of the samples being tested.
(§2) Evaluation of Cytotoxic Activity Using the SBR Colorimetric Assay
(§3) A colorimetric type of assay, using sulforhodamine B (SRB) reaction has been adapted for a quantitative measurement of cell growth and viability (following the technique described by Skehan P et al. J. Natl. Cancer Inst. 1990, 82, 1107-1112).
(§4) This form of assay employs SBS-standard 96-well cell culture microplates (Faircloth et al. Methods in cell science, 1988, 11(4), 201-205; Mosmann et al, Journal of. Immunological. Methods, 1983, 65(1-2), 55-63). All the cell lines used in this study, derived from different types of human cancer, were obtained from the American Type Culture Collection (ATCC).
(§5) Cells were maintained in Dulbecco's Modified Eagle Medium (DMEM) supplemented with 10% Fetal Bovine Serum (FBS), 2 mM L-glutamine, 100 U/mL penicillin and 100 U/mL streptomycin at 37° C., 5% CO2 and 98% humidity. For the experiments, cells were harvested from subconfluent cultures using trypsinization and resuspended in fresh medium before counting and plating.
(§6) Cells were seeded in 96 well microtiter plates at 5×10^3 cells per well in aliquots of 150 μL, and allowed to attach to the plate surface for 18 hours in drug free medium. One control (untreated) plate of each cell line was fixed (as described below) and used for time zero reference value. Afterwards, test samples were added to the cultures in ten serial dilutions, in aliquots of 50 μL, ranging from 10 to 0.00262 μg/mL. After 48 hours exposure, the antitumor effect was estimated by the SRB method: Briefly, cells were washed twice with PBS, fixed for 15 min in 1% glutaraldehyde solution, rinsed twice in PBS, and stained in 0.4% SRB solution for 30 min at room temperature. Cells were then rinsed several times with 1% acetic acid solution and air-dried. SRB was then extracted in 10 mM trizma base solution and the absorbance measured in an automated spectrophotometric plate reader at 490 nm. Cell survival was expressed as percentage of control cell growth. The final effect of the sample being tested was estimated by applying the NCI algorithm (Boyd M R and Paull K D. Drug Dev. Res. 1995, 34, 91-104).
(§7) Using the mean±SD of triplicate cultures, a dose-response curve was automatically generated using nonlinear regression analysis. Three reference parameters were calculated (NCI algorithm) by automatic interpolation: GI50=concentration that produces 50% growth inhibition; TGI=total growth inhibition (cytostatic effect) and LC50=concentration that produces 50% net cell killing (cytotoxic effect).

HT29 = conditions: Homo sapiens, HT-29, HT29, 48 hours exposure, SRB; for CC50: 50% net cell killing (cytotoxic effect), read-out: LC50 (the source's name); for GI50: concentration that produces 50% growth inhibition, read-out: GI50; for IC (TGI): total growth inhibition (cytostatic effect), read-out: TGI
Description: as §1, §2, §3, §4, §5, §6, §7

A549 = conditions: Homo sapiens, A549, 48 hours exposure, SRB; for CC50: 50% net cell killing (cytotoxic effect), read-out: LC50 (the source's name); for GI50: concentration that produces 50% growth inhibition, read-out: GI50; for IC (TGI): total growth inhibition (cytostatic effect), read-out: TGI
Description: as §1, §2, §3, §4, §5, §6, §7

Compound	CC50 (MDA-MB-231) [nM]	GI50 (MDA-MB-231) [nM]	IC (TGI) (MDA-MB-231) [nM]	CC50 (HT29) [nM]	GI50 (HT29) [nM]	IC (TGI) (HT29) [nM]	CC50 (A549) [nM]	GI50 (A549) [nM]	IC (TGI) (A549) [nM]
COC1=CC[C@@H]([C@@H](C)/C=C(C)/C=C\C=C/C(=O)N[C@@H](Cc2ccccc2)C(=O)N/C=C\C[C@H](C/C=C(\C)Cl)OC(N)=O)OC1=O [Compound 31]	0.359	0.075	0.15	> 15.6	0.0406	0.102	> 15.6	0.0922	0.219
COC1=CC[C@@H]([C@@H](C)/C=C(C)/C=C\C=C/C(=O)N[C@@H](Cc2ccccc2)C(=O)N/C=C\C[C@H](C/C=C(\C)Cl)O[Si](C)(C)C(C)(C)C)OC1=O [Compound 29d]	1830	1100	1390	928	829	872	1380	464	801
COC1=CC[C@@H]([C@@H](C)/C=C(C)/C=C\C=C/C(=O)N[C@H](C(=O)N/C=C\C[C@@H](C/C=C(\C)Cl)OC(N)=O)C(C)C)OC1=O [(21S)-5]	103	4.56	18.6	3.88	2.53	2.87	> 1690	6.92	28.7
COC1=CC[C@@H]([C@@H](C)/C=C(C)/C=C\C=C/C(=O)N[C@H](C(=O)N/C=C\C[C@H](C/C=C(\C)Cl)O[Si](C)(C)C(C)(C)C)C(C)(C)C)OC1=O [Compound 29a]	6200	1180	2800	4430	605	1420	8560	886	3400
COC1=CC[C@@H]([C@@H](C)/C=C(C)/C=C\C=C/C(=O)N[C@@H](C(N)=O)C(C)(C)C)OC1=O [(15R)-7]	> 24700	766	2470	1310	346	593	> 24700	1040	3460
COC1=CC[C@@H]([C@@H](C)/C=C(C)/C=C\C=C\C(=O)N[C@H](C(=O)N/C=C\C[C@@H](O)C/C=C(\C)Cl)C(C)(C)C)OC1=O [Compound 30e]	266	23.1	65.7	44.4	13.5	21.3	3550	35.5	302
COC1=CC[C@@H]([C@@H](C)/C=C(C)/C=C\C=C/C(=O)N[C@H](C(N)=O)C(C)(C)C)OC1=O [Compound 7]	2450	420	841	816	420	544	> 2470	618	1190
C/C(Cl)=C\C[C@H](O)C/C=C\NC(=O)[C@@H](NC(=O)\C=C/C=C\C(C)=C\[C@H](C)[C@@H]1CC=CC(=O)O1)C(C)(C)C [Compound 30f]	1610	694	1070	1050	488	713	919	488	657
COC1=CC[C@@H]([C@@H](C)/C=C(C)/C=C/C=C/C(=O)N[C@H](C(=O)N/C=C\C[C@@H](O)C/C=C(\C)Cl)C(C)(C)C)OC1=O [Compound 38]	> 178	60.4	> 178	> 178	39.1	63.9	> 178	46.2	67.5
C/C=C\C[C@H](O)C/C=C\NC(=O)[C@@H](NC(=O)\C=C/C=C\C(C)=C\[C@H](C)[C@@H]1CC=C(OC)C(=O)O1)C(C)(C)C [Compound 30b]	5110	20.8	511	4730	9.84	92.7	> 18900	22.7	322
